From article PMC6421115 (The Journal of eukaryotic microbiology, 2018)
Where a name gives a salt, the structure may show the parent alone. Read-outs that look alike come from different tables or passages of the source. Marks after values point to notes of the source that are not given here.

Legend:
[1] = molecular target: T1, C. parvum hexokinase (CpHK) (Cryptosporidium parvum, UniProt Q5CWT5); assay: biochemical; assay type: biochemical; details: for Mode of inhibition of CpHK: inhibitory kinetics; for Selectivity on enzyme: HsHK1 IC50 versus CpHK IC50
[2] = molecular target: T2, human (Homo sapiens) HK-I (HsHK1) (Homo sapiens, UniProt P19367); assay: HsHK1 inhibition, HK/G6PDH-coupled assay; assay type: biochemical
T2 sequence (P19367 1-917): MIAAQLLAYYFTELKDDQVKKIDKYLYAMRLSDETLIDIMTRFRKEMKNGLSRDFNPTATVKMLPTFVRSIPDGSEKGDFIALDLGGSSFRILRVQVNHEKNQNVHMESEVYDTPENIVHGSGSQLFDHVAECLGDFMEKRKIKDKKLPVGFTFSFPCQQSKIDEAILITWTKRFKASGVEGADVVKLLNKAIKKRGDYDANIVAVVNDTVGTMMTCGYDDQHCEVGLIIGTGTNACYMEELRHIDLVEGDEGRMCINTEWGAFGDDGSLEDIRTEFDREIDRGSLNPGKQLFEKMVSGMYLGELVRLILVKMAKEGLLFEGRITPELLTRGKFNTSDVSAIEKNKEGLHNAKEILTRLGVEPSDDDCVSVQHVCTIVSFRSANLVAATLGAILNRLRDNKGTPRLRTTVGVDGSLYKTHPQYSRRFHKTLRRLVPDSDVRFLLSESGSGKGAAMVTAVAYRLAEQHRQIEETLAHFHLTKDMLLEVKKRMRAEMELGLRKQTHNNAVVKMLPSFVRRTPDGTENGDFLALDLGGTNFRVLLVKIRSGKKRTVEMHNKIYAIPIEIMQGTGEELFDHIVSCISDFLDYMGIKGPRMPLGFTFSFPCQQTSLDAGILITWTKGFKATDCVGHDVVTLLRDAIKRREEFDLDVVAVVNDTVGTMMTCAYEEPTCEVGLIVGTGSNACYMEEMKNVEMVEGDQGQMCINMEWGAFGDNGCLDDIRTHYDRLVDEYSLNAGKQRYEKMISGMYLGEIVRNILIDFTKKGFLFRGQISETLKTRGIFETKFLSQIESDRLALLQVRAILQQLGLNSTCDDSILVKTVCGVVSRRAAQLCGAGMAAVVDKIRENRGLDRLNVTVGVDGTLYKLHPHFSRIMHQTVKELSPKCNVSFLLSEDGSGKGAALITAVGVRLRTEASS

[3] = system: HCT-8 cells; assay: Cytotoxicity on host cells, MTT assay
[4] = system: C. parvum; assay: Efficacy against C. parvum growth in vitro in HCT-8 cells, qRT-PCR assay; details: for Safety Interval (TC50/EC50): HCT-8 TC50 / C. parvum EC50
[5] = system: C. parvum; details: read-out: Efficacy on C. parvum (EC50); in vitro; ref Eltahan et al, 2018; cited from earlier work
[6] = system: HCT-8 cells; details: host cells; ref Eltahan et al, 2018; cited from earlier work
[7] = molecular target: T3, CpHK (Cryptosporidium parvum, UniProt Q5CWT5); assay: CpHK enzyme parameters towards substrates; assay type: biochemical
T3 sequence (Q5CWT5 1-518): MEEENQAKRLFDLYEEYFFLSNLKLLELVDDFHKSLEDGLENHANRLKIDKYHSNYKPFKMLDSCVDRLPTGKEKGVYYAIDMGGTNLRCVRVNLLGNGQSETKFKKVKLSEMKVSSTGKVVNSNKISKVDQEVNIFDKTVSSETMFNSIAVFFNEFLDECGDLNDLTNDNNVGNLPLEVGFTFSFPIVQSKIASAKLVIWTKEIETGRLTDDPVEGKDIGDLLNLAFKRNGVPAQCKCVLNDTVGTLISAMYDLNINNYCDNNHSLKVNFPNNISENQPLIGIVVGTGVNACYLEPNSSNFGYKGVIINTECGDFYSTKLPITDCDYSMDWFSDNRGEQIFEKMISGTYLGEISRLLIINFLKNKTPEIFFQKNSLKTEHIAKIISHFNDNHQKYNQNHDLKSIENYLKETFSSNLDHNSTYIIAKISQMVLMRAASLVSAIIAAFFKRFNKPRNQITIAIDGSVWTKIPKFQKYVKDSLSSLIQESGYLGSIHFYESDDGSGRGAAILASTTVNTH

[8] = molecular target: T4, HsHK1 (Homo sapiens, UniProt P19367); assay: HsHK1 enzyme parameters towards substrates; assay type: biochemical
T4 sequence (P19367 1-917): T2 sequence (P19367 1-917)

[9] = molecular target: T1, C. parvum hexokinase (CpHK); details: ref Yu et al. 2014, cited from earlier work
[10] = substrate: OC[C@H]1OC(O)[C@H](O)[C@@H](O)[C@@H]1O; assay: HsHK1 enzyme parameters towards substrates; assay type: biochemical, Homo sapiens; details: other: compound as substrate, 37 °C, pH 7.5
[11] = substrate: O=CC[C@@H](O)[C@H](O)[C@H](O)CO; assay: purified protein, by the assay type; details: other: compound as substrate, 37 °C, pH 7.5
[12] = substrate: O=CC[C@@H](O)[C@H](O)[C@H](O)CO; assay: CpHK enzyme parameters towards substrates; assay type: biochemical, Cryptosporidium parvum; details: other: compound as substrate; pH 7.5
[13] = substrate: OC[C@H]1OC(O)[C@H](O)[C@@H](O)[C@@H]1O; assay: CpHK enzyme parameters towards substrates; assay type: biochemical, Cryptosporidium parvum; details: other: compound as substrate; pH 7.5
[14] = Cryptosporidium parvum, HCT-8, 44 h, read-out: In vitro efficacy (EC50)
[15] = Cryptosporidium parvum, HCT-8, read-out: Efficacy on C. parvum (EC50)

In the case of `C[CH2][Hg][S]c1ccccc1C(=O)[O-].[Na+]` [Thimerosal], the “Mode of inhibition of CpHK” value [1] is reported as “mixed model of inhibition”, the IC50 ([1]; read-out: Inhibition on CpHK (IC50), 37 °C, 1% DMSO) is reported as 2.3 µM and the IC50 ([2]; read-out: Inhibition on HsHK1 (IC50), 37 °C, 1% DMSO) is reported as 0.35 µM. The “Cytotoxicity (TC50)” value ([3]; host cells) was 18.5 µM and the EC50 ([4]; read-out: Efficacy on C. parvum (EC50), in vitro) was 1.77 µM.

In the case of `O=CC[C@@H](O)[C@H](O)[C@H](O)COP(=O)(O)O` [2DG6P, 2-deoxy-D-glucose-6-phosphate], the “Cytotoxicity (TC50)” value ([3]; 44 h treatment) is reported as >72000 µM, the EC50 [4, 14] is reported as 18000 µM and the “Safety Interval (TC50/EC50)” value [4] is reported as >4.0.

In the case of `CCCCC(CC)CNC(=N)NC(=N)NCCCCCCNC(=N)NC(=N)NCC(CC)CCCC` (stereo not shown) [Alexidine•2HCl, alexidine dihydrochloride], the IC50 [1] is reported as 22.1 µM, the Selectivity on enzyme [1] is reported as 1.03 and the “Mode of inhibition of CpHK” value [1] is reported as “noncompetitive inhibitor”. For the same molecule, the IC50 [2] was 22.7 µM, the “Cytotoxicity (TC50)” value ([3]; host cells) was 32.6 µM and the EC50 [4, 15] was 8.1 µM.

In the case of `Oc1c(Cl)cc(Cl)c(Cl)c1Cc1c(O)c(Cl)cc(Cl)c1Cl` [Hexachlorophene], the IC50 [1] is reported as 8.8 µM, the Selectivity on enzyme [1] is reported as 0.74 and the “Mode of inhibition of CpHK” value [1] is reported as “mixed model of inhibition”. For the same molecule, the IC50 [2] was 6.5 µM, the “Cytotoxicity (TC50)” value ([3]; host cells) was 100 µM and the EC50 [4, 15] was 0.53 µM.

For `OC[C@H]1OC(O)[C@H](F)[C@@H](O)[C@@H]1O` (stereo partly shown) [FDG, fluorodeoxyglucose], the IC50 ([1]; read-out: Effect on CpHK, IC50) was 3700 µM, the IC50 ([2]; read-out: Effect on HsHK1, IC50, 37 °C) was 15200 µM and the “Safety Interval (TC50/EC50)” value [4] was > 240. The “Safety Interval (TC50/EC50)” value ([4]; listed as 2FDG) was >240 and the EC50 ([4]; read-out: In vitro efficacy (EC50), 44 h infection assay) was 300 µM.

With `O=c1c2ccccc2[se]n1-c1ccccc1` [Ebselen, 2-phenyl-1,2-benzisoselenazol-3(2H)-one] the IC50 [1] was 0.241 µM, the Selectivity on enzyme [1] was 1.10 and the “Mode of inhibition of CpHK” value [1] was “noncompetitive inhibitor”. The “Reversibility of CpHK inhibition” value ([1]; not reversed by up to 50-fold dilution, from 100 to 2 μM) was “irreversible inhibitor”, the IC50 [2] was 0.265 µM and the EC50 [5] was 165 µM. The “Cytotoxicity (TC50)” value [6] was 700 ^* μM.

With `O=CC[C@@H](O)[C@H](O)[C@H](O)CO` [2DG, 2-deoxy-D-glucose] the IC50 [1] was 5750 µM, the IC50 [2] was 10100 µM and the “Ratio (2DG/glucose) of CpHK Vmax” value [7] was 0.72. For the same molecule, the “Ratio (2DG/glucose) of CpHK Km” value ([7]; fold lower affinity than for glucose) was 4.43, the “Ratio (2DG/glucose) of HsHK1 Km” value [8] was 9.81 and the “Ratio (2DG/glucose) of HsHK1 Vmax” value [8] was 1.28. For the same molecule, the IC50 ([9]; read-out: CpHK IC50) was 5750 µM, the Ki ([9]; read-out: CpHK Ki) was 340 µM and the “Mode of inhibition of CpHK” value [9] was “competitive inhibitor”. The “Cytotoxicity (TC50)” value ([3]; 44 h treatment) was 36000 µM, the EC50 [4, 14] was 540 µM and the “Safety Interval (TC50/EC50)” value [4] was 66.7.

B1: HsHK1 (Homo sapiens) (protein)
chain: T2 sequence (P19367 1-917)
B1 showed a Km [10] of 27 µM, a Vmax [10] of 53.3 µmol/min and a Km [11] of 265 µM. For the same molecule, the Vmax [11] was 68.4 µmol/min.

B2: CpHK (Cryptosporidium parvum Iowa II) (protein)
chain: T3 sequence (Q5CWT5 1-518)
Work on B2 yielded a Km [12] of 204 µM, a Vmax [12] of 112 µmol/min and a Km [13] of 46 µM. It also gave a Vmax [13] of 155 µmol/min.
